Structures can show the parent of a compound that is named as a salt.
What was measured:
[1] = acceleration stability test at 40° C. of crystals filled into vials (residue rate, appearance); type: physicochemical; conditions: for appearance (of powder) / residue rate (%): 40° C., vial
Method: (§1) The crystals obtained in the above examples were filled into vials and the residue rate thereof was examined through the acceleration stability test at 40° C. Further, the turbidity of an aqueous solution containing the crystal was determined.
(§2) The monosulfate crystal of compound (I) obtained in Example 9 was filled into vials and the residue rate thereof was examined through the acceleration stability test at 40° C. Further, the turbidity was determined.
As a reference compound, used was a lyophilization product of monohydrochloride of compound (I) (non-crystal, KF value: 1.7%, 0.6 H2O) obtained according to the method of Example 6-2 of WO 00/32606.
(§3) The crystals obtained in Example 10 were filled into vials and the residue rate thereof was examined through the acceleration stability test at 40° C. Further, the turbidity of solutions was determined.

[2] = turbidity / appearance of an aqueous solution containing the crystal; type: physicochemical; conditions: for turbidity Abs(600 nm): aqueous solution, absorbance 600 nm
Method: as §1, §2, §3

Compound | appearance (of powder) ([1]; 1 month) | residue rate (%) ([1]; 1 month) | appearance (of powder) ([1]; initial) | residue rate (%) ([1]; initial) | turbidity Abs(600 nm) ([2]; after 1 month at 40° C.) | turbidity Abs(600 nm) ([2]; initial) | stability (in words) ([1]; acceleration stability test at 40° C.) | turbidity upon being dissolved into water (in words) ([2]; after storage at 40° C.) | appearance (of powder) ([1]; 2 month) | residue rate (%) ([1]; 2 month) | appearance of solution ([2]; after 1 month at 40° C.) | appearance of solution ([2]; after 2 month at 40° C.) | turbidity Abs(600 nm) ([2]; after 2 month at 40° C.) | appearance of solution ([2]; initial)
CCO/N=C(\C(=O)N[C@@H]1C(=O)N2C(C(=O)[O-])=C(C[n+]3cccc4c3NCN4CCCNC)CS[C@H]12)c1nsc(N)n1 [Example 6(1)] | white | 99.6 | white | 100.0 | 0.011 | 0.000 |  |  |  |  |  |  |  | 
CCO/N=C(\C(=O)N[C@@H]1C(=O)N2C(C(=O)[O-])=C(C[n+]3cccc4c3NCN4CCCNC)CS[C@H]12)c1nsc(N)n1 [Example 6(2)] | white | 99.0 | white | 100.0 | 0.007 | 0.006 |  |  |  |  |  |  |  | 
CCO/N=C(\C(=O)N[C@@H]1C(=O)N2C(C(=O)[O-])=C(C[n+]3cccc4c3NCN4CCCNC)CS[C@H]12)c1nsc(N)n1 [Example 10] |  | 98.5 | white powder | 100.0 | 0.002 | 0.002 | high stability for a long period | turbidity was hardly observed |  |  |  |  |  | 
CCO/N=C(\C(=O)N[C@@H]1C(=O)N2C(C(=O)[O-])=C(C[n+]3cccc4c3ncn4CCCNC)CS[C@H]12)c1nsc(N)n1 [hydrochloride, reference compound] | pale | 94.8 | pale | 100.0 | 0.565 | 0.001 |  |  | pale | 92.9 | Yellow | Yellow | 1.338 | pale
